Results: US8329681B2, “Methods and compositions for the efficient delivery of therapeutic agents to cells and animals” (University of Massachusetts, priority 2005, dated 2012)

How the values were obtained:
[1] = test system: FL83B cells; assay: Cell Titer-Blue cell viability assay, cytotoxicity of liposomes; type: cell-based, rat; details: 50 μg/ml, 24 h incubation
Method: The Cell Titer-Blue Cell Viability Assay Kit (Promega, Madison, Wis.) was applied to detect and measure cytotoxicity in FL83B cells according to the manufacturer's instructions. Briefly, […] cells were plated on 96-well plate in F-12K medium (ATCC, Manassas, Va.) with 10% fetal bovine serum at 37° C. in 5% CO2. At 24 h., liposomes were added to each well at various concentrations and incubated for 24 h at 37° C. in 5% CO2. Afterwards, the Cell Titer-Blue Reagent was added to each well at 20 μl/well and incubated for 4 h at 37° C. in 5% CO2. The fluorescent signal was recorded by a fluorescent reader (560/590 nm).
Briefly, in a first experiment, the ability of eukaryotic cells to survive exposure to various lipids at doses of 20 and 50 μg/ml was examined. Fl83B cells were plated on 96-well plate for 24 hours. Typically liposomes were added to well and incubated at 37° C. for 24 hours. Thereafter, Cell Titer-Blue Reagent (resazurin) was added and incubated for 4 hours. Resazurin was used as indicator to measure the metabolic capacity of cells. Viable cells retain the ability to reduce resazurin into resorufin, which is highly fluorescent. […] The fluorescence in each well was measured by fluorescent reader.
All cytotoxicity measurements were performed after 24 h of incubation with new synthesizes liposome without medium changes. […]

[2] = test system: A549 cells; assay: Transfection of pSV-β-gal plasmid, β-galactosidase reporter activity; type: cell-based, human
Method: (§1) Cationic lipids and the co-lipids in chloroform were dried under a stream of N2 gas and vacuum-desiccated for a minimum of 6 h to remove residual organic solvent. The dried lipid film was hydrated in sterile deionized water at cationic lipid concentration of 1 mM for a minimum of 12 h. Liposomes were vortexed to remove any adhering lipid film and probe sonicated until a clear translucent solution is formed. The pDNA solution was added to the liposomes, mixed properly by pipeting and shaken on a rotary shaker (15-30 mins.) before use.
(§2) Cells were seeded at a density of 20,000 (for HeLa cells), 16,000 (for A-549 cells), 8,000 (for FL83B cells) per well in a 96-well plate 18-24 h before transfection. An amount of 0.30 μg of pDNA was complexed with varying amounts of lipids (to give +/− ratios of 0.3:1, 1:1, 3:1 and 9:1) in plain OPTIMEM (total volume made up to 100 μl) and then shaken on a rotary shaker at room temperature for 20-30 minutes. The complexes were then added to the cells. After 5 h of incubation, 200 μl of complete medium containing 10% FBS in DMEM for HeLa and 10% FBS in F-12K for FL83B and A549 was added to the cells. The medium was changed after 24 h and the reporter gene activity was estimated 48 h after transfection. Cells were washed with PBS (100 μl) and lysed in […] lysis buffer (5× reporter lysis buffer diluted to 1×, working concentration). The β-galactosidase activity per well was estimated by adding 50 μl of 2× substrate solution (1.33 mg/ml of ONPG, 0.2 M sodium phosphate, pH 7.15 and 2 mM magnesium chloride) to the lysate in a 96-well plate. Absorbance of the product ortho-nitrophenol was measured at 420 nm. The absorbance values reported are the average values from two replicate experiments performed in the same plate on the same day. Each transfection experiment was performed three times on three different days to control for variations in transfection efficiency.
(§3) Briefly, the efficacy of various lipid formulations were tested in three cell lines A-549, FL83B and HeLa cells and the transfection efficiencies of the cationic liposomal formulations were compared with a commercially available transfection reagent (e.g., Lipofectamine 2000).

[3] = test system: HeLa cells; assay: as above; type: cell-based, human
Method: as §1, §2, §3

[4] = test system: FL83B cells; assay: as above; type: cell-based, rat
Method: as §1, §2, §3

[5] = test system: CDK9 expression; assay: In vivo delivery of CDK9 siRNA with liposome by tail vein injection, CDK9 expression in spleen; parameters: species or system BALB/c mice; details: Cy3-labeled CDk9 siRNA (25 μg) and liposome (125 μg), repeated 4 and 8 h later, within the initial 24 h after treatment
Method: Total RNA was extracted from tissues or cultured cells using Trizol (Invitrogen, Carlsbad, Calif.), and real-time RT-PCR for CDK9 and GAPDH mRNA quantification was carried out using 200 ng of total RNA and the QuantiTect SYBR Green RT-PCR Kit (Qiagen, Valencia, Calif.) according to the manufacturer's instructions. The ratio of CDK9 and GAPDH mRNA was calculated and expressed as a group average relative to the control group. The specific probe for detection of CDK9 mRNA levels was designed to the following regions of the CDK9 mRNA ORF, the forward primer 5′ TCGGACCAA AGCCTCACCGTATAA 3′, the reverse primer 5′ […] TTG 3′
Male BALB/c mice, 6-8 weeks of age and weighting 20-22 g, were purchased form the Jackson Laboratory (Bar Harbor, Me.). Synthetic siRNA were delivered in vivo using following method. For each mice 25 μg of siRNA in 100 μl of HEPES Buffered Saline (20 mM HEPES, 150 mM NaCl, pH 7.4) was transferred into a sterile tube. In a separate sterile tube 125 μg of liposome was mixed with 200 μl HEPES Buffered Saline. The siRNA solution was transferred to the tube containing liposome solution and then incubated at room temperature for 20 minutes. 200 μl of the complexes was injected via the tail vein, using a 1-ml syringe and 27-gauge needle. The injection was repeated 4 and 8 h later. Control mice were injected with an equal volume of liposome. At 24 h after the last injection, the mice were sacrificed and tissues were harvested for further analysis. CDK9 expression level was normalized with GAPDH and then compared to those obtained from control animals and shown as percent expression. The data represent the mean value +/− SD of three to five mice in each group.
Briefly, the ability of the new synthesized liposome to deliver siRNA in mice was investigated. BALB/c mice were administrated with complexes of Cy3-labeled CDk9 siRNA (25 μg) and liposome (125 μg) via normal pressure tail vein injection. The injection was repeated 4 and 8 h later. Control mice were administrated with an equal amount of liposome. […]

[6] = test system: FL83B cells; assay: Cell Titer 96 AQueous One Solution (MTS) cytotoxicity assay; type: cell-based, rat; details: liposomal formulation alone or in combination with DOPE and DOPC as co-lipid
Method: (§4) Alternatively, the cytotoxicity of the lipids was measured using the Cell Titer 96® AQueous One Solution Cell Proliferation Assay. The Cell Titer 96® AQueous One Solution Reagent contains a tetrazolium compound [3-(4,5-dimethylthiazol-2-yl)-5-(3-carboxymethoxyphenyl)-2(4-sulfophenyl)-2H-tetrazolium, inner salt; MTS^17] and an electron coupling reagent (phenazine ethosulfate; PES). The cytotoxicity assay was performed in 96 well plates by maintaining the ratio of number of cells to amount of cationic lipid constant as in transfection experiments. MTS was added 24 hours after transfection. Cell Titer 96® AQueous One Solution Reagent (20 ul) was pipetted into each well of the 96-well assay plate containing the samples in 100 μl of culture medium. In case of HeLa cells the plates were incubated for 2 hours, whereas for FL83B cells, plates were incubated for 4 hours at 37° C. in a humidified, 5% CO2 atmosphere. Absorbance was then recorded at 490 nm.
(§5) In a second experiment, FL83B and HeLa cells were plated on 96 well plate 18 hours prior to transfection. Then, liposome was added to each well and incubated for 24 hours. Thereafter, Cell Titer 96® AQueous One Solution Reagent was added and incubated for 4 hours. The MTS tetrazolium compound (Owen's reagent) is bioreduced by viable cells into a colored formazan product that is soluble in tissue culture […]. The absorbance of the formazan was measured at 490 nm with a 96 well plate reader.

[7] = test system: HeLa cells; assay: as above; type: cell-based, human; details: liposomal formulation alone or in combination with DOPE and DOPC as co-lipid
Method: as §4, §5

[8] = test system: A-549, FL83B and HeLa cells; assay: Transfection of pSV-β-gal plasmid, overall statement without cell line; type: cell-based; details: alone without any co-lipids
Method: as §2, with “efficiency. […]” for “efficiency.”

[9] = in combination with DOPE and DOPC
[10] = alone and in combination with DOPE and DOPC, lipid:DNA charge ratio 9.0:1 to 0.3:1
[11] = alone or in combination with DOPE and DOPC, lipid:DNA charge ratio 9.0:1 to 0.3:1.0
[12] = lipid:DNA charge ratio 9.0:1 to 0.3:1.0

CCCCCCCCCCCCCC(=O)O[C@H](COC(=O)CCC(=O)O[C@H]1CC[C@@]2(C)C(=CC[C@H]3[C@@H]4CC[C@H]([C@H](C)CCCC(C)C)[C@@]4(C)CC[C@@H]32)C1)C[N+](C)(CCO)CCO.[I-] [Lipid 9]
cell death [1]: 12%
transfection efficiency compared with Lipofectamine 2000 [2, 9]: comparable
transfection efficiency, fold less than Lipofectamine 2000 [3, 9]: more than 1 fold
transfection efficiency, fold less than Lipofectamine 2000 [4, 9]: more than 1 fold
CDK9 expression level in the spleen decreased by [5]: 30%

CCCCCCCCCCCCCC(=O)OC(COC(=O)CCC(=O)O[C@H]1CC[C@@]2(C)C(=CC[C@H]3[C@@H]4CC[C@H]([C@H](C)CCCC(C)C)[C@@]4(C)CC[C@@H]32)C1)C[N+](C)(C)C.[I-] (some centres unmarked) [Lipid 7, N,N,N-Trimethyl-N-[2-(tetradecanoyloxy),3-succinyloxy(4-cholesteryloxy)-propyl]ammonium iodide]
cytotoxicity as compared to a control [6]: non-toxic
cytotoxicity as compared to a control [7]: non-toxic
transfection efficiency compared with Lipofectamine 2000 [2, 10]: comparable
transfection efficiency compared with Lipofectamine 2000 [3, 10]: more than one fold less
transfection efficiency compared with Lipofectamine 2000 [4, 10]: comparable
CDK9 expression level in the spleen decreased by [5]: 40%
transfection efficiency of lipid alone compared with lipid in combination with DOPE and DOPC [8]: about as efficient

CC[N+](C)(C)CCNC(=O)OC1CC[C@@]2(C)C(=CC[C@H]3[C@@H]4CC[C@H]([C@H](C)CCCC(C)C)[C@@]4(C)CC[C@@H]32)C1 (some centres unmarked) [Lipid 14]
transfection efficiency, fold less than Lipofectamine 2000 ([2]; alone or in combination with DOPE and DOPC, lipid:DNA charge ratios 1:1 and 0.3:1): about 1.5 fold
transfection efficiency compared with Lipofectamine 2000 ([3]; in combination with DOPC, lipid:DNA charge ratio 0.3:1): almost comparable
transfection efficiency, fold less than Lipofectamine 2000 ([3]; in combination with DOPE): 2.5 fold
transfection efficiency, fold less than Lipofectamine 2000 ([3]; lipid alone, charge ratio 9:1 to 3:1): more than 1.5 fold
transfection efficiency compared with Lipofectamine 2000 ([4]; alone, charge ratio 3:1): comparable
transfection efficiency compared with Lipofectamine 2000 ([4]; in combination with DOPC): less efficient
transfection efficiency compared with Lipofectamine 2000 ([4]; in combination with DOPE, charge ratio 9:1): comparable

CC(C)CCC[C@@H](C)[C@H]1CC[C@H]2[C@@H]3CC=C4CC(OC(=O)CCC(=O)OCC(O)C[N+](C)(C)C)CC[C@]4(C)[C@H]3CC[C@]12C (some centres unmarked) [Lipid 12, N,N,N-Trimethyl-N-[2-hydroxy, 3-succinyloxy(4-cholesteryloxy)-propyl]ammonium iodide]
transfection efficiency compared with Lipofectamine 2000 ([2]; lipid:DNA charge ratio 0.3:1): comparable
transfection efficiency compared with Lipofectamine 2000 ([3]; lipid:DNA charge ratio 0.3:1): comparable
transfection efficiency compared with Lipofectamine 2000 ([4]; lipid:DNA charge ratio 0.3:1): comparable

CC(C)CCC[C@@H](C)[C@H]1CC[C@H]2[C@@H]3CC=C4C[C@@H](OC(=O)NCC[N+](C)(C)CCCCCCCCCCCO)CC[C@]4(C)[C@H]3CC[C@]12C.[Br-] [Lipid 16]
cytotoxicity as compared to a control [6]: non-toxic
cytotoxicity as compared to a control [7]: non-toxic
transfection efficiency compared with Lipofectamine 2000 [2, 11]: about a little more than one fold
transfection efficiency of lipid alone compared with combination with co-lipids DOPE and DOPC [2, 12]: almost the same
transfection efficiency, fold less active than Lipofectamine 2000 [3, 11]: about 1.5 fold
transfection efficiency of lipid alone compared with combination with co-lipids DOPE and DOPC [3, 12]: almost the same
transfection efficiency compared with Lipofectamine 2000 ([4]; alone or in combination with co-lipids): about two fold less
